Laboratory results taken from paper PMC10112232, “Comparison of Toxicities among Different Bumped Kinase Inhibitor Analogs for Treatment of Cryptosporidiosis” (Antimicrobial Agents and Chemotherapy, 2023).
Read-outs that look alike come from different tables or passages of the source.

Legend:
[1] = Multidose calf toxicity study; assay type: in vivo; details: calves
Method: Male and female calves were dosed orally with 7.5 or 15 mg/kg BID for 5 days. Adverse effects began on day 4, so the 7.5 mg/kg group received 9 doses total and the 15 mg/kg group received 7 doses total before the experiment was terminated.
A control group of male and female rats were administered vehicle only for controls. […] Observations of feeding and general health were made twice daily. Clinical assessments were made at 1 h after each treatment. Blood was collected for hematology and blood chemistry before the first dose and prior to euthanasia. Necropsy and histology of organs (Liver, heart, lung, kidney, spleen, thymus, brain, spinal cord, nerves of the front and back legs, including muscle, bone marrow femur, stomach, small and large intestine, including lymph nodes, and femur and sternum, including epiphyseal plates, distal hind limb, and thyroid gland) were performed after euthanasia.

[2] = test system: CRL-8155 cells; design: method as in PMID 30830766; details: cited from earlier work
[3] = cited from earlier work; for CO / HR / MAP / PR / QRS / QTcV / SVR / dp/dt@50: dog, IV 0.02 mL/kg/min
[4] = biological target: human tyrosine kinase SRC (HsSRC) (Homo sapiens, UniProt P12931); design: method as in PMID 30830766; details: read-out: HsSR IC50; cited from earlier work
[5] = test system: Nluc expressing C. parvum; design: method as in PMID 30830766; details: cited from earlier work
[6] = Aqueous solubility; assay type: physicochemical
From the text: TABLE 1 In vitro properties of bumped kinase inhibitors^a | column: Solubility at pH 2 (μM); Solubility at pH 6.5 (μM)

[7] = test system: Nluc expressing C. parvum; experiment: Efficacy in IFN-γ KO mice infected with Nluc expressing C. parvum; assay type: in vivo; details: for difference in parasite excretion vs untreated control: n = 3
Method: BKI-1841 was also tested at doses of 60, 30, 15, and 5 mg/kg once daily (QD) for 5 days, resulting in a minimum efficacious dose of 30 mg/kg that cleared parasite excretion to background levels by day 13 postinfection (Fig. 4).
FIG 4 Efficacy of BKI-1841 in interferon-γ knockout mice infected with nanoluciferase expressing C. parvum. Treatments were separated into two separate experiments for BKI-1841. Untreated control groups for each experiment are grouped with their associated treatment in the figure keys. Dotted line denotes the limit of detection. Treatments were dosed on days 6 through 10 postinfection. […] QD = once daily.
Methods for synthesis of BKIs ([17], [23]), efficacy against Nluc expressing C. parvum in infected adult IFN-γ KO mice ([6], [9]), in vivo mouse GI tract tissue exposure by LC/MS-MS analysis ([18], [28]), PK analysis of mouse plasma and brain tissue BKI concentrations by LC/MS-MS analysis ([29]), in vivo rat and dog cardiotoxicity screen ([30]), efficacy against IOWA-II strain C. parvum in infected neonatal calves ([13]), efficacy against C. hominis in infected piglets ([12]), in vitro inhibition of C. parvum CDPK1 (CpCDPK1) and human tyrosine kinase SRC (HsSRC) activity ([31]), in vitro inhibition of hERG ([32]), Nluc expressing C. parvum in vitro growth inhibition in infected HCT-8 cells ([6]), in vitro cytotoxicity in CRL-8155 and HepG2 cells ([29]), and mouse locomotor activity box ([33], [34]) have all been previously described. Analytes were measured by LC/MS-MS on an Acquity ultra performance liquid chromatography (UPLC) system in tandem with a Xevo TQ-S mass spectrometer (Waters, Milford, MA, USA).

human tyrosine kinase SRC (HsSRC), sequence (P12931 whole entry): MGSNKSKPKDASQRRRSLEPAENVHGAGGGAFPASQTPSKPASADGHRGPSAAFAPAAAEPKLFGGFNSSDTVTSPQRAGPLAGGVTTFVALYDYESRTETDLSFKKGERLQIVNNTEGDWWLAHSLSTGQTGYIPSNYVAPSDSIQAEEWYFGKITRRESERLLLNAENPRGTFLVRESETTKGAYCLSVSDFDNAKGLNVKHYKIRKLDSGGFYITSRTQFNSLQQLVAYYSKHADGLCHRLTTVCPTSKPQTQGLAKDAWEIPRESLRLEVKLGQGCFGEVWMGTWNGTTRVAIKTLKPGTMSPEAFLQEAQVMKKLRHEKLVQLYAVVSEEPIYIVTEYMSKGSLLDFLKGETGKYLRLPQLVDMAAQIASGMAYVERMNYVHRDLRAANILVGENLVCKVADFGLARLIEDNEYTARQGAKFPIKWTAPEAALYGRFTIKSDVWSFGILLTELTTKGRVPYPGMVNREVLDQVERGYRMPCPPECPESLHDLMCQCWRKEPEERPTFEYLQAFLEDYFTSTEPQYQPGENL

**Q.** Which results are given for `CCOc1ccc2cc(-c3nn(C(C)(C)CCO)c(N)c3C(N)=O)ccc2c1` [BKI-1770]?
**A.** bone findings ([1]; both 7.5 and 15 mg/kg BID groups): changes to the epiphyseal growth plates in the femur and sternum; locomotion findings ([1]; oral 15 mg/kg BID, 7 doses total): locomotion problems on days 2 and 3; CC50 [2]: > 80 µM; effects on MAP, HR, contractility, SVR, CO, QTcV, QRS, PR vs control ([3]; anesthetized dogs, 0.02 mL/kg/min, 150 min): No appreciable effects; CO ([3]; 15 min): 0%; HR ([3]; 15 min): 4%; MAP ([3]; 15 min): 2%; PR ([3]; 15 min): -3 ms; QRS ([3]; 15 min): 0 ms; QTcV ([3]; 15 min): 4 ms; SVR ([3]; 15 min): 2%; dp/dt@50 ([3]; 15 min): 1%; CO ([3]; 30 min): 4%; HR ([3]; 30 min): 5%; MAP ([3]; 30 min): 2%; PR ([3]; 30 min): 0 ms; QRS ([3]; 30 min): 0 ms; QTcV ([3]; 30 min): 1 ms; SVR ([3]; 30 min): -1%; dp/dt@50 ([3]; 30 min): 0%; CO ([3]; 45 min): 3%; HR ([3]; 45 min): 8%; MAP ([3]; 45 min): 2%; PR ([3]; 45 min): -1 ms; QRS ([3]; 45 min): -1 ms; QTcV ([3]; 45 min): 1 ms; SVR ([3]; 45 min): -2%; dp/dt@50 ([3]; 45 min): 1%; CO ([3]; 60 min): -1%; HR ([3]; 60 min): 9%; MAP ([3]; 60 min): 2%; PR ([3]; 60 min): -1 ms; QRS ([3]; 60 min): -2 ms; QTcV ([3]; 60 min): -1 ms; SVR ([3]; 60 min): 2%; dp/dt@50 ([3]; 60 min): -1%; CO ([3]; 75 min): -1%; HR ([3]; 75 min): 9%; MAP ([3]; 75 min): 0%; PR ([3]; 75 min): -1 ms; QRS ([3]; 75 min): -2 ms; QTcV ([3]; 75 min): -3 ms; SVR ([3]; 75 min): 1%; dp/dt@50 ([3]; 75 min): -2%; CO ([3]; 90 min): -9%; HR ([3]; 90 min): 10%; MAP ([3]; 90 min): -1%; PR ([3]; 90 min): 0 ms; QRS ([3]; 90 min): -2 ms; QTcV ([3]; 90 min): -2 ms; SVR ([3]; 90 min): 8%; dp/dt@50 ([3]; 90 min): -6%; CO ([3]; 105 min): -4%; HR ([3]; 105 min): 9%; MAP ([3]; 105 min): -2%; PR ([3]; 105 min): 0 ms; QRS ([3]; 105 min): -3 ms; QTcV ([3]; 105 min): -1 ms; SVR ([3]; 105 min): 2%; dp/dt@50 ([3]; 105 min): -7%; CO ([3]; 120 min): -5%; HR ([3]; 120 min): 10%; MAP ([3]; 120 min): -2%; PR ([3]; 120 min): -1 ms; QRS ([3]; 120 min): -2 ms; QTcV ([3]; 120 min): 0 ms; SVR ([3]; 120 min): 4%; dp/dt@50 ([3]; 120 min): -7%; CO ([3]; 135 min): -8%; HR ([3]; 135 min): 11%; MAP ([3]; 135 min): -3%; PR ([3]; 135 min): -1 ms; QRS ([3]; 135 min): -1 ms; QTcV ([3]; 135 min): -2 ms; SVR ([3]; 135 min): 7%; dp/dt@50 ([3]; 135 min): -7%; CO ([3]; 150 min): -7%; HR ([3]; 150 min): 13%; MAP ([3]; 150 min): -5%; PR ([3]; 150 min): -2 ms; QRS ([3]; 150 min): -1 ms; QTcV ([3]; 150 min): -1 ms; SVR ([3]; 150 min): 4%; dp/dt@50 ([3]; 150 min): -7%; signs of cardiotoxicity ([3]; dogs): no signs of cardiotoxicity; IC50 [4]: > 10 µM; EC50 [5]: 0.5 µM

**Q.** What does the source list for `CCOc1ccc2cc(-c3nn(C4CCOCC4)c(N)c3C(N)=O)ccc2n1` [BKI-1841]?
**A.** solubility ([6]; aqueous medium at pH 2, pH 2, simulated gastric fluid, read-out: Solubility at pH 2): > 100 µM; solubility ([6]; aqueous medium at pH 6.5, pH 6.5, aqueous buffer, read-out: Solubility at pH 6.5): > 100 µM; difference in parasite excretion vs untreated control ([7]; 5 mg/kg QD days 6-10 postinfection): no significant difference; difference in parasite excretion vs untreated control ([7]; 15 mg/kg QD days 6-10 postinfection): no significant difference; difference in parasite excretion vs untreated control ([7]; 30 mg/kg QD days 6-10 postinfection): Significant differences; difference in parasite excretion vs untreated control ([7]; 60 mg/kg QD days 6-10 postinfection): Significant differences; minimum efficacious dose ([7]; IFN-γ KO mice, once daily (QD) for 5 days, cleared parasite excretion to background by day 13 postinfection): 30 mg/kg
